Where two headings read alike, the source gives them in different places.
What was measured:
[1] = test system: Cirsium arvense (Canadian thistle, CIRAR); assay: Greenhouse postemergence trial CIRAR; format: in vivo
[2] = test system: Brassica napus (winter rape, BRSNW); assay: Greenhouse postemergence trial BRSNW; format: in vivo
Procedure: (§1) Seeds of the desired test plant species were planted in a 90:10% v/v (volume/volume) mixture of PRO-MIX® BX (Premier Tech Horticulture, Quakertown, PA, USA) and PROFILE® GREENS GRADE™ (Profile Products LLC, Buffalo Grove, IL, USA) planting mixture, which typically has a pH of 5.2 to 6.2 and an organic matter content of at least 50 percent, in plastic pots with a surface area of 103.2 square centimeters (cm^2). […] The plants were grown for 7-36 days (d) in a greenhouse with an approximate 14-hour (h) photo-period which was maintained at about 23° C. during the day and 22° C. during the night. Nutrients and water were added on a regular basis and supplemental lighting was provided with overhead metal halide 1000-Watt lamps as necessary. The plants were employed for testing when they reached the second or third true leaf stage.
(§2) Emulsifiable concentrates of each of each pyridine carboxylate herbicide (Compound A or Compound B) were prepared at 100 grams acid equivalent per liter (g ae/L). The emulsifiable concentrates also included a safener, cloquintocet-mexyl, at 120 grams active ingredient per liter (g ai/L), unless otherwise noted below. An aliquot of each emulsifiable concentrate was placed in a 25 mL glass vial and diluted with an aqueous mixture of 1.25% (v/v) ACTIROB® B esterified rapeseed oil (Bayer Crop Science, Research Triangle Park, NC, USA) or MSO® Concentrate with LECI-TECH® methylated soybean oil (Loveland Products, Loveland, CO, USA) to obtain concentrated stock solutions at the highest application rate for each herbicide, based upon a 12 milliliter (mL) application volume at a rate of 187 liters per hectare (L/ha). The concentrated stock solutions were further diluted with an aqueous mixture of 1.25% v/v ACTIROB® B or MSO® Concentrate with LECI-TECH® to obtain stock solutions at reduced application rates for each herbicide. Spray solutions of the herbicide combinations (Compound A or Compound B plus synthetic auxin herbicide or auxin transport inhibitor) were prepared by adding weighed amounts or aliquots of the synthetic auxin herbicide or auxin transport inhibitor to the stock solutions of Compound A or Compound B to form 12-mL spray solutions in two-way combinations.
(§3) The spray solutions were applied to the plant material with an overhead Mandel track sprayer equipped with 8002E nozzles calibrated to deliver 187 L/ha over an application area of 0.503 square meters (m^2) at a spray height of 18 inches (43 centimeters (cm)) above the average plant canopy. Control plants were sprayed in the same manner with the solvent blank. All pyridine carboxylate herbicide (component a) application rates are given as “g ae/ha” and all synthetic auxin herbicide or auxin transport inhibitor (component b) application rates are given as “g ai/ha.”
(§4) The treated plants and control plants were placed in a greenhouse as described above and watered by sub-irrigation to prevent wash-off of the test compounds. After 20-22 d, the condition of the test plants as compared with that of the control plants was determined visually and scored on a scale of 0 to 100 percent where 0 corresponds to no injury and 100 corresponds to complete kill.

[3] = test system: Viola tricolor (wild pansy, VIOTR); assay: Greenhouse postemergence trial VIOTR;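 further: greenhouse plants sprayed at second to third true leaf stage, injury rated visually after 20-22 d against solvent-blank sprayed controls, 0 meaning no injury and 100 complete kill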
[4] = test system: Chenopodium album L. (common lambsquarters, CHEAL); assay: Greenhouse postemergence trial CHEAL; format: in vivo; settings: for % visual injury (Obs): CHEAL, alone 280 g/ha;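 on all read-outs here: greenhouse plants sprayed at second to third true leaf stage, injury rated by eye after 20-22 d versus solvent-blank sprayed controls, 0 = no injury, 100 = complete kill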
Procedure: (§5) The plants were grown for 7-36 days (d) in a greenhouse with an approximate 14-hour (h) photo-period which was maintained at about 23° C. during the day and 22° C. during the night. Nutrients and water were added on a regular basis and supplemental lighting was provided with overhead metal halide 1000-Watt lamps as necessary. The plants were employed for testing when they reached the second or third true leaf stage.
(§6) The emulsifiable concentrates also included a safener, cloquintocet-mexyl, at 120 grams active ingredient per liter (g ai/L), unless otherwise noted below.
(§7) Control plants were sprayed in the same manner with the solvent blank. All pyridine carboxylate herbicide (component a) application rates are given as “g ae/ha” and all synthetic auxin herbicide or auxin transport inhibitor (component b) application rates are given as “g ai/ha.”
as §4

[5] = test system: Amaranthus retroflexus (pigweed, AMARE); assay: Greenhouse postemergence trial AMARE; format: in vivo; settings: for % visual injury (Obs): AMARE, alone 280 g/ha;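 on all read-outs here: Greenhouse-grown plants sprayed at second to third true leaf stage, injury rated by eye after 20-22 d versus solvent-blank sprayed controls, 0 = no injury, 100 = complete kill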
[6] = test system: Kochia scoparia (kochia, KCHSC); assay: Greenhouse postemergence trial KCHSC; format: in vivo; settings: for % visual injury (Obs): alone 280 g/ha
[7] = test system: Polygonum convolvulus (wild buckwheat, POLCO); assay: Greenhouse postemergence trial POLCO; format: in vivo; settings: for % visual injury (Obs): alone 280 g/ha
[8] = test system: Glycine max (volunteer soybean, GLXMA); assay: Greenhouse postemergence trial GLXMA; format: in vivo; settings: Dichlorprop-K 280 g/ha (Table 40)
Procedure: as §1, §2, §3, §4

[9] = test system: Abutilon theophrasti (velvetleaf, ABUTH); assay: Greenhouse postemergence trial ABUTH; format: in vivo; settings: Dichlorprop-K 280 g/ha (Table 40)
Procedure: as §1, §2, §3, §4

[10] = test system: Sinapis arvensis (wild mustard, SINAR); assay: Greenhouse postemergence trial SINAR; format: in vivo; settings: SINAR
[11] = test system: Matricaria chamomilla (wild chamomile, MATCH); assay: Greenhouse postemergence trial MATCH; format: in vivo; settings: for % visual injury (Obs): alone 280 g/ha;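 on all read-outs here: greenhouse plants sprayed at second to third true leaf stage, injury rated by eye 20-22 d later versus solvent-blank controls on 0–100 scale, 0 no injury, 100 complete kill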
Procedure: as §5, §6, §7, §4

[12] = test system: Ipomoea hederacea (ivyleaf morningglory, IPOHE); assay: Greenhouse postemergence trial IPOHE; format: in vivo; settings: Dichlorprop-K 280 g/ha (Table 40)
Procedure: as §1, §2, §3, §4

[13] = test system: Stellaria media (chickweed, STEME); assay: Greenhouse postemergence trial STEME; format: in vivo
Procedure: as §1, §2, §3, §4

[14] = test system: Helianthus annuus (common sunflower, HELAN); assay: Greenhouse postemergence trial HELAN; format: in vivo; settings: Dichlorprop-K 280 g/ha (Table 40)
Procedure: as §1, §2, §3, §4

[15] = test system: Rumex obtusifolius (broad-leaf dock, RUMOB); assay: Greenhouse postemergence trial RUMOB; format: in vivo
Procedure: as §1, §2, §3, §4

[16] = test system: Triticum aestivum (winter wheat, TRZAW); assay: Greenhouse postemergence crop phytotoxicity TRZAW; format: in vivo; settings: TRZAW
Procedure: as §1, §2, §3, §4

[17] = test system: Anthemis arvensis (field chamomile, ANTAR); assay: Greenhouse postemergence trial ANTAR; format: in vivo; settings: Anthemis arvensis, post-emergence, read-out: % visual injury Obs
Procedure: as §1, §2, §3, §4

[18] = test system: Papaver rhoeas (corn poppy, PAPRH); assay: Greenhouse postemergence trial PAPRH; format: in vivo; settings: Papaver rhoeas, post-emergence, read-out: % visual injury Obs
[19] = test system: Cyanus segetum (cornflower, CENCY); assay: Greenhouse postemergence trial CENCY; format: in vivo; settings: Centaurea cyanus, post-emergence, read-out: % visual injury Obs
[20] = test system: Salsola kali (Russian thistle, SASKR); assay: Greenhouse postemergence trial SASKR; format: in vivo; settings: SASKR;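 further: greenhouse plants sprayed at second or third true leaf stage, injury rated by eye after 20-22 d against solvent-blank controls, 0 meaning no injury, 100 complete kill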
Procedure: as §5, §6, §7, §4

[21] = test system: Hordeum vulgare (spring barley, HORVS); format: in vivo; settings: HORVS
Procedure: as §1, §2, §3, §4

[22] = test system: Lamium purpureum (purple deadnettle, LAMPU); assay: Greenhouse postemergence trial LAMPU; settings: Lamium purpureum, post-emergence, read-out: % visual injury Obs
[23] = test system: Capsella bursa-pastoris (shepherd's purse, CAPBP); assay: Greenhouse postemergence trial CAPBP; format: in vivo; settings: Capsella bursa-pastoris, post-emergence, read-out: % visual injury Obs
[24] = test system: Hordeum vulgare (winter barley, HORVW); assay: Greenhouse postemergence crop phytotoxicity HORVW; format: in vivo; settings: HORVW
[25] = test system: Matricaria discoidea (pineapple weed, MATMT); assay: Greenhouse postemergence trial MATMT; format: in vivo
[26] = test system: Viola arvensis (field violet, VIOAR); assay: Greenhouse postemergence trial VIOAR; format: in vivo; settings: Viola arvensis, post-emergence, read-out: % visual injury Obs
[27] = test system: Papaver rhoeas (corn poppy), herbicide-resistant (PAPRH-R); assay: Greenhouse postemergence trial PAPRH-R; format: in vivo
Procedure: as §1, §2, §3, §4

[28] = test system: Brassica napus (spring rape, BRSNN); assay: Greenhouse postemergence trial BRSNN; format: in vivo
Procedure: as §5, §6, §7, §4

[29] = test system: Veronica hederifolia (ivyleaf speedwell, VERHE); assay: Greenhouse postemergence trial VERHE; format: in vivo
[30] = test system: Matricaria inodora (false chamomile, MATIN); assay: Greenhouse postemergence trial MATIN; format: in vivo; settings: Tripleurospermum inodorum, post-emergence, read-out: % visual injury Obs
[31] = test system: Triticum aestivum (spring wheat, TRZAS); format: in vivo; settings: TRZAS
[32] = test system: Veronica persica (bird's-eye speedwell, VERPE); assay: Greenhouse postemergence trial VERPE; format: in vivo
[33] = Dichlorprop-K 280 g/ha (Table 40)
[34] = Viola tricolor, post-emergence, read-out: % visual injury Obs
[35] = c2-3 Compound A 7.5/10, c4 Florpyrauxifen-benzyl 10, c5-6 A 7.5/10 + Florpyrauxifen-benzyl 10 g/ha

## CC(Oc1ccc(Cl)cc1Cl)C(=O)[O-].[K+] (stereo not shown) [Dichlorprop-K]
[1]; CIRAR, alone 280 g/ha
  % visual injury (Obs): 15%
[1]; [33]
  CIRAR % visual injury Obs: 63%
[2]; BRSNW, alone 280 g/ha
  % visual injury (Obs): 63%
[3]; [33]
  VIOTR % visual injury Obs: 65%
[4]
  % visual injury (Obs): 70%
[4]; [33]
  CHEAL % visual injury Obs: 60%
[5]
  % visual injury (Obs): 85%
[5]; [33]
  AMARE % visual injury Obs: 10%
[6]; [33]
  KCHSC % visual injury Obs: 63%
[6]; KCHSC
  % visual injury (Obs): 60%
[7]; [33]
  POLCO % visual injury Obs: 0%
[7]; POLCO
  % visual injury (Obs): 18%
[8]
  GLXMA % visual injury Obs: 33%
[9]
  ABUTH % visual injury Obs: 40%
[10]; alone 280 g/ha
  % visual injury (Obs): 78%
[11]; MATCH
  % visual injury (Obs): 20%
[12]
  IPOHE % visual injury Obs: 75%
[13]; [33]
  STEME % visual injury Obs: 0%
[14]
  HELAN % visual injury Obs: 90%
[15]; [33]
  RUMOB % visual injury Obs: 73%

## COc1c(Cl)ccc(-c2nc(C(=O)OCc3ccccc3)c(Cl)c(N)c2F)c1F [Florpyrauxifen-benzyl, florpyrauxifen-benzyl, reference compound]
[1]; Cirsium arvense, post-emergence, CIRAR, Florpyrauxifen-benzyl 20 g/ha, read-out: % visual injury Obs
  pest or weed control at 20 g/ha: 70%
[2]; Brassica napus, post-emergence, read-out: % visual injury Obs
  plant injury at 20 g/ha: 40%
[16]; Florpyrauxifen-benzyl 20 g/ha
  % visual injury Obs: 0%
[3]; [34]
  pest or weed control at 20 g/ha: 70%
[6]; Bassia scoparia, post-emergence, KCHSC, Florpyrauxifen-benzyl 20 g/ha, read-out: % visual injury Obs
  pest or weed control at 20 g/ha: 65%
[17]
  pest or weed control at 20 g/ha: 100%
[18]
  pest or weed control at 20 g/ha: 70%
[19]
  pest or weed control at 20 g/ha: 100%
[7]; Fallopia convolvulus, post-emergence, read-out: % visual injury Obs
  pest or weed control at 20 g/ha: 85%
[20]; Salsola kali, post-emergence, Florpyrauxifen-benzyl 20 g/ha, read-out: % visual injury Obs
  pest or weed control at 20 g/ha: 70%
[21]; Florpyrauxifen-benzyl 20 g/ha
  % visual injury Obs: 0%
[22]
  pest or weed control at 20 g/ha: 97%
[23]
  pest or weed control at 20 g/ha: 80%
[24]; Florpyrauxifen-benzyl 20 g/ha
  % visual injury Obs: 0%
[25]; Matricaria discoidea, post-emergence, read-out: % visual injury Obs
  pest or weed control at 20 g/ha: 50%
[26]
  pest or weed control at 20 g/ha: 10%
[27]; Papaver rhoeas, post-emergence, read-out: % visual injury Obs
  pest or weed control at 20 g/ha: 60%
[28]; [35]
  % visual injury, Obs: 25%
[10]; Mutarda arvensis, post-emergence, Florpyrauxifen-benzyl 20 g/ha, read-out: % visual injury Obs
  pest or weed control at 20 g/ha: 90%
[29]; Veronica hederifolia, post-emergence, read-out: % visual injury Obs
  pest or weed control at 20 g/ha: 20%
[30]
  pest or weed control at 20 g/ha: 50%
[31]; Florpyrauxifen-benzyl 20 g/ha
  % visual injury Obs: 0%
[11]; Matricaria chamomilla, post-emergence, MATCH, Florpyrauxifen-benzyl 20 g/ha, read-out: % visual injury Obs
  pest or weed control at 20 g/ha: 35%
[13]; Stellaria media, post-emergence, read-out: % visual injury Obs
  pest or weed control at 20 g/ha: 100%
[15]; [35]
  % visual injury, Obs: 33%
[32]; Veronica persica, post-emergence, read-out: % visual injury Obs
  pest or weed control at 20 g/ha: 10%

## O=C(O)COc1nc(Cl)c(Cl)cc1Cl [Triclopyr]
[1]; Cirsium arvense, post-emergence, CIRAR, alone, 560 g/ha, read-out: % visual injury Obs
  pest or weed control at 560 g/ha: 75%
[2]; Brassica napus, post-emergence, BRSNW, alone, 560 g/ha, read-out: % visual injury Obs
  plant injury at 560 g/ha: 60%
[2]; Triclopyr 45 g/ha (Table 39)
  BRSNW % visual injury Obs: 10%
[2]; Triclopyr 60 g/ha (Table 39)
  BRSNW % visual injury Obs: 10%
[16]; alone, 560 g/ha
  % visual injury Obs: 0%
[3]; [34]
  pest or weed control at 560 g/ha: 70%
[4]
  % visual injury (Obs): 53%
[5]
  % visual injury (Obs): 45%
[6]; Bassia scoparia, post-emergence, KCHSC, alone, 560 g/ha, read-out: % visual injury Obs
  pest or weed control at 560 g/ha: 75%
[6]; KCHSC
  % visual injury (Obs): 23%
[17]; ANTAR, alone, 560 g/ha
  pest or weed control at 560 g/ha: 40%
[18]; PAPRH, alone, 560 g/ha
  pest or weed control at 560 g/ha: 20%
[19]; CENCY, alone, 560 g/ha
  pest or weed control at 560 g/ha: 100%
[7]; Fallopia convolvulus, post-emergence, POLCO, alone, 560 g/ha, read-out: % visual injury Obs
  pest or weed control at 560 g/ha: 30%
[7]; POLCO
  % visual injury (Obs): 13%
[20]; alone 280 g/ha
  % visual injury (Obs): 45%
[20]; Salsola kali, post-emergence, alone, 560 g/ha, read-out: % visual injury Obs
  pest or weed control at 560 g/ha: 50%
[21]; alone 280 g/ha
  % visual injury (Obs): 0%
[21]; alone, 560 g/ha
  % visual injury Obs: 0%
[22]
  pest or weed control at 560 g/ha: 65%
[23]; CAPBP, alone, 560 g/ha
  pest or weed control at 560 g/ha: 75%
[24]; alone, 560 g/ha
  % visual injury Obs: 0%
[25]; Matricaria discoidea, post-emergence, MATMT, alone, 560 g/ha, read-out: % visual injury Obs
  pest or weed control at 560 g/ha: 10%
[25]; Triclopyr 45 g/ha (Table 39)
  MATMT % visual injury Obs: 20%
[25]; Triclopyr 60 g/ha (Table 39)
  MATMT % visual injury Obs: 25%
[26]; VIOAR, alone, 560 g/ha
  pest or weed control at 560 g/ha: 25%
[27]; Papaver rhoeas, post-emergence, PAPRH-R, alone, 560 g/ha, read-out: % visual injury Obs
  pest or weed control at 560 g/ha: 50%
[27]; Triclopyr 45 g/ha (Table 39)
  PAPRH-R % visual injury Obs: 10%
[27]; Triclopyr 60 g/ha (Table 39)
  PAPRH-R % visual injury Obs: 10%
[28]; BRSNN, alone 280 g/ha
  % visual injury (Obs): 50%
[10]; Mutarda arvensis, post-emergence, alone, 560 g/ha, read-out: % visual injury Obs
  pest or weed control at 560 g/ha: 100%
[29]; Triclopyr 45 g/ha (Table 39)
  VERHE % visual injury Obs: 10%
[29]; Triclopyr 60 g/ha (Table 39)
  VERHE % visual injury Obs: 15%
[29]; Veronica hederifolia, post-emergence, VERHE, alone, 560 g/ha, read-out: % visual injury Obs
  pest or weed control at 560 g/ha: 65%
[30]; MATIN, alone, 560 g/ha
  pest or weed control at 560 g/ha: 0%
[31]; alone 280 g/ha
  % visual injury (Obs): 0%
[31]; alone, 560 g/ha
  % visual injury Obs: 0%
[11]; MATCH
  % visual injury (Obs): 5%
[11]; Matricaria chamomilla, post-emergence, MATCH, alone, 560 g/ha, read-out: % visual injury Obs
  pest or weed control at 560 g/ha: 40%
[11]; Triclopyr 45 g/ha (Table 39)
  MATCH % visual injury Obs: 10%
[11]; Triclopyr 60 g/ha (Table 39)
  MATCH % visual injury Obs: 10%
[13]; Stellaria media, post-emergence, STEME, alone, 560 g/ha, read-out: % visual injury Obs
  pest or weed control at 560 g/ha: 30%
[32]; Triclopyr 45 g/ha (Table 39)
  VERVE % visual injury Obs: 0%
[32]; Triclopyr 60 g/ha (Table 39)
  VERVE % visual injury Obs: 0%
[32]; Veronica persica, post-emergence, VERPE, alone, 560 g/ha, read-out: % visual injury Obs
  pest or weed control at 560 g/ha: 60%
